Data published in ChEMBL document CHEMBL4627267, “A novel series of cysteine-dependent, allosteric inverse agonists of the nuclear receptor RORγt” (Bioorg Med Chem Lett, 2020).
Activity calls are given as the source filed them. No cut-off for these calls is given here.

Columns and labels:
[1] = biological target: T1, Nuclear receptor ROR-alpha (Homo sapiens) (UniProt P35398); assay: Inverse agonist activity at human full-length RORalpha expressed in Jurkat cells co-transfected with 5 copies of ROR response element after 18 hrs by luciferase based reporter gene assay; format: cell-based
T1 sequence (whole entry): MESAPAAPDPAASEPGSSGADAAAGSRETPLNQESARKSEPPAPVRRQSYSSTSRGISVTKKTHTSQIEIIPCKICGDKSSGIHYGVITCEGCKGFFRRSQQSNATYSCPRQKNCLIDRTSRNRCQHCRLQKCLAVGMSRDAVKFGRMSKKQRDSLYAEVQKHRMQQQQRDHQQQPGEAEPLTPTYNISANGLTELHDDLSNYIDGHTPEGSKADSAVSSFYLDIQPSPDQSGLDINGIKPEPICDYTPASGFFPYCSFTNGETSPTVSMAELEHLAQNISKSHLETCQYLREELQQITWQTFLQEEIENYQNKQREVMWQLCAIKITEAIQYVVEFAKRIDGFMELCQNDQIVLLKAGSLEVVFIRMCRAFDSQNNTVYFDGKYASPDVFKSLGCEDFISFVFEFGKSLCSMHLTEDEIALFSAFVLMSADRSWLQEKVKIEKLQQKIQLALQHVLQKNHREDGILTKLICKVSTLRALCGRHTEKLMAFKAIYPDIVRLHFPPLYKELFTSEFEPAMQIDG

[2] = biological target: T2, Nuclear receptor ROR-beta (Homo sapiens) (UniProt Q92753); assay: Inverse agonist activity at human full-length RORbeta expressed in Jurkat cells co-transfected with 5 copies of ROR response element after 18 hrs by luciferase based reporter gene assay; format: cell-based
T2 sequence (whole entry): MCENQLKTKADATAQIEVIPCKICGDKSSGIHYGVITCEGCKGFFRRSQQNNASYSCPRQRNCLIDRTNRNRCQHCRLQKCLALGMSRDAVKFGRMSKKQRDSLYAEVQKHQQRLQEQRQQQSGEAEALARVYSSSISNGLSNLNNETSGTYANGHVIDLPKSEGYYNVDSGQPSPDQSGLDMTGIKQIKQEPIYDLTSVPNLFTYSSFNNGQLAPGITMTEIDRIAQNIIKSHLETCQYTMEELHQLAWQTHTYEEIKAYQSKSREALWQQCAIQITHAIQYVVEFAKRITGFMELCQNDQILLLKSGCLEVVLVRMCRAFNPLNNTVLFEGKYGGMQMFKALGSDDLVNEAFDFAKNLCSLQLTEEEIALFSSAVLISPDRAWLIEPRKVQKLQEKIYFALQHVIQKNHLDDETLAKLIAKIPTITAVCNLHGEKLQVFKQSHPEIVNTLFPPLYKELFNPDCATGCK

[3] = Cytotoxicity against human CD4-positive T cells assessed as reduction in cell viability at 100 nM; format: cell-based; settings: 0.1 µM
Mus musculus [4] = assay: Antiarthritic activity in collagen/complete freund's adjuvant-induced DBA/1 mouse model of arthritis assessed as reduction in clinical score at 3 mg/kg/day, po administered via gavage starting from 21 day post collagen/CFA challenge and measured up to 42 days; format: functional, organism-based
Mus musculus [5] = assay: Antiarthritic activity in collagen/complete freund's adjuvant-induced DBA/1 mouse model of arthritis assessed as reduction in paw thickness at 3 mg/kg/day, po administered via gavage starting from 21 day post collagen/CFA challenge and measured up to 42 days; format: functional, organism-based

Row | Structure (SMILES) | Activity [1] | Activity [2] | Activity [3] | Activity (Mus musculus [4]) | Activity (Mus musculus [5])
1 | Cc1cc(-c2nc(-c3ccc(F)cc3)c3c(n2)[C@]2(C)C=C(C#N)C(=O)[C@H](C)[C@H]2CC3)ccn1 | inactive | inactive | 10 to 15% | Active | Active
2 | CCC[C@H]1C(=O)C(C#N)=C[C@@]2(C)c3nc(-c4ccnc(C5CC5)c4)nc(-c4ccccc4F)c3CC[C@H]12 | inactive | inactive |  |  | 
